Laboratory results from patent EP0745595A1, “3-(3-Aryloxyphenyl)-1-(substituted methyl)-s-triazine-2,4,6-oxo or thiotrione herbicidal agents” (American Cyanamid Company, priority 1995, dated 1996).

Assays:
Type in all cases: in vivo
[1] = system: AMBROSIA ARTEMISIIFOLIA, L.; test: Preemergence herbicidal evaluation, AMBEL (Ragweed, Common); conditions: for AMBEL herbicidal rating: rated four to five weeks after treatment
Method in brief: (§1)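 Rated 0-9 by visual comparison with control (stand, vigor, malformation, size, chlorosis, overall appearance) four to five weeks after preemergence soil spray. Dose equivalent to about 0.125 to 0.50 kg per hectare, applied in aqueous acetone to freshly seeded cups kept in greenhouse.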

[2] = system: ABUTILON THEOPHRASTI, MEDIC.; test: Preemergence herbicidal evaluation, ABUTH (Velvetleaf); conditions: for ABUTH herbicidal rating: rated four to five weeks after treatment
Method in brief: as §1

IPOMOEA SPP. = test: Preemergence herbicidal evaluation, IPOSS (Morningglory spp.); conditions: for IPOSS herbicidal rating: rated four to five weeks after treatment
Method in brief: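 This preemergence greenhouse test scored herbicidal effect on morningglory planted in pint cups, with seed mixed into potting soil and placed over about one inch of soil. After treatment the cups were watered and kept under conventional care. At four to five weeks, plant stand, vigor, malformation, size, chlorosis and overall appearance were compared with a control and rated 0-9.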

[3] = system: SETARIA VIRIDIS, (L) BEAU; test: Preemergence herbicidal evaluation, SETVI (Foxtail, Green); conditions: for SETVI herbicidal rating: rated four to five weeks after treatment
Method in brief: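 Preemergence herbicidal activity against green foxtail was assessed by planting seed mixed with potting soil over about one inch of soil in individual pint cups. After treatment the cups stayed in a greenhouse under standard care. At four to five weeks, each cup was scored 0-9 relative to a control based on stand, vigor, malformation, size, chlorosis and overall appearance.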

[4] = system: ORYZA SATIVA, L. TEBONNET; test: Preemergence herbicidal evaluation, ORYSAT (Rice, Tebonnet); conditions: for ORYSAT herbicidal rating: rated four to five weeks after treatment
Method in brief: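 Preemergence herbicidal activity on Tebonnet rice was assessed using pint cups of seeded potting soil kept under conventional greenhouse care after treatment. Tests ended four to five weeks later. Each cup received a 0-9 rating from visual comparison with a control covering stand, vigor, malformation, size, chlorosis and overall appearance.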

Molecule | AMBEL herbicidal rating ([1]; Rate 0.125 kg/ha) | AMBEL herbicidal rating ([1]; Rate 0.250 kg/ha) | AMBEL herbicidal rating ([1]; Rate 0.500 kg/ha) | ABUTH herbicidal rating ([2]; Rate 0.125 kg/ha) | ABUTH herbicidal rating ([2]; Rate 0.250 kg/ha) | ABUTH herbicidal rating ([2]; Rate 0.500 kg/ha) | IPOSS herbicidal rating (IPOMOEA SPP.; Rate 0.125 kg/ha) | IPOSS herbicidal rating (IPOMOEA SPP.; Rate 0.250 kg/ha) | IPOSS herbicidal rating (IPOMOEA SPP.; Rate 0.500 kg/ha) | SETVI herbicidal rating ([3]; Rate 0.125 kg/ha) | SETVI herbicidal rating ([3]; Rate 0.250 kg/ha) | SETVI herbicidal rating ([3]; Rate 0.500 kg/ha) | ORYSAT herbicidal rating ([4]; Rate 0.125 kg/ha) | ORYSAT herbicidal rating ([4]; Rate 0.250 kg/ha) | ORYSAT herbicidal rating ([4]; Rate 0.500 kg/ha) | other results
COC(=O)Cn1c(=O)n(C)c(=O)n(-c2cc(Oc3ccc(SC)cc3Cl)ccc2[N+](=O)[O-])c1=O [Compound 34, Methyl 3-{5-[2-chloro-4-(methylthio)-phenoxy]-2-nitrophenyl}tetrahydro-5-methyl-2,4,6-trioxo-s-triazine-1(2H)-acetate] | 0.0 | 0.0 | 0.0 | 0.0 | 0.0 | 0.0 | 0.0 | 0.0 | 0.0 | 0.0 | 0.0 | 0.0 | 0.0 | 0.0 | 0.0 | 
COC(=O)Cn1c(=O)n(C)c(=O)n(-c2cc(Oc3cc(Cl)cc(Cl)c3)ccc2[N+](=O)[O-])c1=O [Compound 35, Methyl 3-[5-(3,5-dichlorophenoxy)-2-nitrophenyl]tetrahydro-5-methyl-2,4,6-trioxo-s-triazine-1(2H)-acetate] |  |  | 0.0 |  |  | 0.0 |  |  | 0.0 |  |  | 0.0 |  |  | 0.0 | 
COC(=O)Cn1c(=O)n(C)c(=O)n(-c2cc(Oc3ccccn3)ccc2[N+](=O)[O-])c1=O [Compound 38, Methyl tetrahydro-3-methyl-5-[2-nitro-5-(2-pyridyloxy)phenyl]-2,4,6-trioxo-s-triazine-1(2H)-acetate] |  |  | 0.0 |  |  | 0.0 |  |  | 0.0 |  |  | 0.0 |  |  | 3.0 | 
Methyl 3-{2-[(2-chloro-α,α,α,-trifluoro-p-tolyl)oxy]phenyl}tetrahydro-5-methyl-2,4,6-trioxo-s-triazine-1(2H)-acetate [Compound 28] | 5.0 | 5.0 | 7.0 | 0.0 | 3.0 | 4.0 | 2.0 | 3.0 | 6.0 | 0.0 | 2.0 | 3.0 | 1.0 | 2.0 | 4.0 | AMBEL ([1]; Rate 0.125 kg/ha): 5.0; AMBEL ([1]; Rate 0.250 kg/ha): 5.0; AMBEL ([1]; Rate 0.500 kg/ha): 7.0; AMBEL ([1]; Rate 1.000 kg/ha): 5.0; ABUTH ([2]; Rate 0.125 kg/ha): 0.0; ABUTH ([2]; Rate 0.250 kg/ha): 3.0; ABUTH ([2]; Rate 0.500 kg/ha): 4.0; ABUTH ([2]; Rate 1.000 kg/ha): 7.0; IPOSS (IPOMOEA SPP.; Rate 0.125 kg/ha): 2.0; IPOSS (IPOMOEA SPP.; Rate 0.250 kg/ha): 3.0; IPOSS (IPOMOEA SPP.; Rate 0.500 kg/ha): 6.0; IPOSS (IPOMOEA SPP.; Rate 1.000 kg/ha): 7.0; SETVI ([3]; Rate 0.125 kg/ha): 0.0; SETVI ([3]; Rate 0.250 kg/ha): 2.0; SETVI ([3]; Rate 0.500 kg/ha): 3.0; SETVI ([3]; Rate 1.000 kg/ha): 6.0; ORYSAT ([4]; Rate 0.125 kg/ha): 1.0; ORYSAT ([4]; Rate 0.250 kg/ha): 2.0; ORYSAT ([4]; Rate 0.500 kg/ha): 4.0; ORYSAT ([4]; Rate 1.000 kg/ha): 4.0
